pIC50: −log10 of the molar value.
How the values were obtained:
[1] = tested on: NMDA receptor-mediated synaptic transmission in hippocampal slices; details: reference antagonists, 0 Mg++, general statement; cited from earlier work
[2] = target: T1, glycine receptor of the NMDA receptor complex (Rattus norvegicus, UniProt P35439); test: Test A: [^3 H]-glycine binding assay; design: species or system male Sprague-Dawley rats; details: 20 nanomolar [^3 H]-glycine, rat cortical/hippocampal synaptic membranes, pH 7.1, 30 minutes at 4° C.
T1 construct: neuronal synaptic membranes are prepared from adult (about 250 g) male Sprague-Dawley rats; from tissue; host or cells: cerebral cortices and hippocampi of adult male Sprague-Dawley rats, synaptic membranes
Source text: (§1) The actions of compounds of formula I as antagonists at the glycine receptor of the NMDA receptor complex can be shown by one or more standard tests such as the [^3 H]-glycine binding assay (Test A), by functional assays in vitro such as tests for measuring glutamate-evoked contractions of the guinea pig ileum (Test B) and/or tests for measuring antagonism of NMDA-induced evoked response in hippocampal slices (Test C), and by tests in vivo such as ischemia induced by carotid occlusion in the gerbil model (Test D).
In the [^3 H]-glycine binding assay, neuronal synaptic membranes are prepared from adult (about 250 g) male Sprague-Dawley rats. Freshly dissected cortices and hippocampi are homogenized in 0.32M sucrose (110 mg/mL). Synaptosomes are isolated by centrifugation (1000 xg, 10 min), the supernatant is pelleted (20,000 xg, 20 min) and resuspended in double-distilled water. The suspension was centrifuged for 20 minutes at 8,000 xg. The resulting […] and buffy coat are washed twice (48,000 xg, 10 mins, resuspension in double-deionized water). The final pellet is quickly frozen (dry ice/ethanol bath) under double-deionized water and stored at -70° C.
On the day of the experiment, thawed synaptic membranes are homogenized with a Brinkmann Polytron (™, Brinkmann Instruments, Westbury, N.Y.) tissue homogenizer in 50 millimolar tris(hydroxymethyl)aminomethane citrate, pH 7.1. The membranes are incubated with 0.04% Sufact-AMPS X100 (™, Pierce, Rockford, Ill.) in buffer for 20 minutes at 37° C. and washed six times by centrifugation (48,000 xg, 10 min) and resuspended in buffer. The final pellet is homogenized at 200 mg wet weight/mL of the buffer for the binding assay.
For [^3 H]-glycine binding at the N-methyl-D-aspartate receptor, 20 nanomolar [^3 H]-glycine (40-60 Ci/mmol, New England Nuclear, Boston, Mass.) is incubated with the membranes suspended in 50 millimolar tris (hydroxymethyl)aminomethane citrate, pH 7.1 for 30 minutes at 4° C. Glycine, 1 millimolar, is used to define the nonspecific binding. […] Radioactivity is estimated by liquid scintillation counting. […]

[3] = tested on: glutamate-evoked contractions of the guinea pig ileum; test: Test B: glutamate-evoked contractions of the guinea pig ileum; type: cell-based; details: Cavia porcellus; twitch responses evoked with 100 micromolar glutamate
Source text: as §1
For glutamate-evoked contractions of the guinea pig ileum, the methodology is as described previously (Luzzi et. al., Br. J. Pharmacol., 95, 1271-1277 (1989)). The longitudinal muscle and associated myenteric plexus are removed and placed in oxygenated modified Krebs-Henseleit solution (118 millimolar NaCl, 4.7 millimolar KCl, 2.5 millimolar CaCl2, 1.2 millimolar KH2 PO4, 25 millimolar NaHCO3, and 11 millimolar glucose). Tissues are suspended on glass rods in organ baths under a resting tension of 0.5 g. After an initial depolarization with 80 millimolar potassium ion to remove possible blockade of the NMDA receptor channel complex with magnesium ion, twitch responses are evoked with 100 micromolar glutamate. Isometric mechanical responses are recorded. Tissues are equilibrated for at least 2 hours prior to addition of compounds.
A dose response curve for the effect of the unknown on the magnitude of the glutamate-evoked contractions is generated. Glutamate-evoked contractions are generated at 20 minute intervals, with the test compound added 5 minutes before the glutamate. The magnitude of the contraction with each dose of the unknown is expressed relative to the control, the third contraction evoked by 100 micromolar glutamate alone in the same tissue bath. The IC50 is obtained from a least-squares regression of a logit-log transformation of the data.
After the last contraction for the dose-response curve, 100 micromolar glycine is added to the bath 10 minutes after the previous addition of glutamate. […]

[4] = tested on: NMDA receptor-mediated synaptic transmission in hippocampal slices; test: Test C: hippocampal slice test (HST), antagonism of NMDA-induced evoked response; type: cell-based, male Sprague-Dawley rats; details: 0 Mg++; for inhibition of the secondary PSs (antagonism) / reversal of the inhibition by D-serine: Example 1 at 15.2 μM, Example 4 at 10 μM; for concentration at which glycine antagonism is exhibited: evaluated at a multiple of the Test B IC50
Source text: as §1
The characterization of a compound as a glycine antagonist in the hippocampal slice test (HST) is dependent on (1) the ability of the compound to inhibit NMDA receptor-mediated synaptic transmission in hippocampal slices and (2) the subsequent reversal of these inhibitory effects by D-serine.
The procedure for the HST is as follows. Transverse hippocampal slices are obtained from male Sprague-Dawley rats weighting 80-150 gm. The rats are decapitated and the brains quickly removed and placed in cold Krebs-Ringersolution which contains (in millimolar) NaCl (122.6), NaHCO3 (26.2), KCl (5.4), MgSO4 (2.0), NaH2 PO4 (1.2), CaCl2 (2.0), and D-glucose (10.0). The hippocampus is dissected free from surrounding tissues, and 495 microns thick slices are cut and immediately transferred to a humidified static interface chamber with a 95% O2 :5% CO2 atmosphere at room temperature. Following a 1-hour equilibration period, slices are placed one at a time into a small perfusion chamber where they are completely submerged in continuously flowing oxygenated 2 millimolar Mg++ perfusate (4 mL/min) at 33° C. and allowed to equilibrate for 10 to 15 min.
For the electrophysiology part of the experiments, bipolar tungsten stimulating electrodes are positioned in the stratum radiatum of the CA3 cell body region of the hippocampus and a single-barrel glass microelectrode filled with Krebs-Ringer solution is positioned in the CA1 cell body region. Low frequency stimulation is then applied to area CA3 which evokes a primary population spike (PS) recorded from CA1. The primary PS represents the summation of a multiple of synaptic potentials mediated via the quisqualate receptor. The stimulus intensity is adjusted to evoke a PS of 1-4 mV amplitude and is maintained at this intensity throughout the experiment.
When the perfusion medium is then changed from 1 millimolar Mg++ to one containing 0 Mg++, the primary PS is followed by the appearance of many secondary PSs. The appearance of the secondary PSs are attributed to the unmasking of NMDA-mediated synaptic events in 0 Mg++. […] The effects of directly acting NMDA and indirectly acting NMDA (ie, glycine) receptor antagonists can also be differentiated by the ability of D-serine to reverse this inhibition.

[5] = tested on: neuronal damage in the hippocampus; test: Test D: ischemia induced by carotid occlusion in the gerbil model; type: in vivo, adult female Mongolian gerbils; details: 10 mg/Kg intraperitoneally, 45 minutes before and 5 minutes after occlusion
Source text: as §1
When testing in vivo using the gerbil ischemic model, adult female Mongolian gerbils (50-70 g) are anesthetized with 2 to 3% halothane. The bilateral common carotid arteries at the neck are exposed and occluded with microaneurysm clips. After 10 min (unless specified), the clips are removed and the blood flow through the carotid arteries is restored and the skin is sutured. […] Gross behavioral observations along with motor activity are recorded for 2 hr on the first (24 hr) day following the occlusion. […]
Sections (7 micron) are evaluated from each brain. […] The average brain damage rating score for each group is recorded, and the damage scores of the drug treated group are compared to the vehicle-treated group using Wilcoxon-Rank Sum test. […]

Structure (SMILES)	reversal of the inhibition of the secondary PSs by D-serine [1]	pIC50 [2]	pIC50 [3]	further results
O=C(O)c1cc(O)c2ccc(Cl)cc2n1 [7-chlorokynurenic acid]	reversed by D-serine			inhibition of the secondary PSs [1]: inhibit the secondary PSs
NC(CCCP(=O)(O)O)C(=O)O (stereo not shown) [APV]	not reversed by D-serine			
O=C(O)C1CN(CCCP(=O)(O)O)CCN1 (stereo not shown) [CPP]	not reversed by D-serine			
O=c1[nH][nH]c(=O)c2c1[nH]c1cc(Cl)ccc12 [Example 1]		6.26	4.89	inhibition of the secondary PSs (antagonism) [4]: antagonist; reversal of the inhibition by D-serine [4]: reversible by D-serine; concentration at which glycine antagonism is exhibited [4]: 15.2 µM; neuroprotection (relative to sham-operated control) [5]: 34%
O=c1[nH][nH]c(=O)c2c1[nH]c1cc(Cl)cc(Cl)c12 [Example 4]		6.48	5.19	inhibition of the secondary PSs (antagonism) [4]: antagonist; reversal of the inhibition by D-serine [4]: reversible by D-serine; concentration at which glycine antagonism is exhibited [4]: 10 µM; neuroprotection (relative to sham-operated control) [5]: over 75%
O=c1[nH][nH]c(=O)c2c1[nH]c1cc(C(F)(F)F)cc(C(F)(F)F)c12 [Example 7, 7,9-Ditrifluoromethylpyridazino[4,5-b]indole-1,4-dione]		5.57	4.16	
NC1CCN(O)C1=O (stereo not shown) [HA-966]	reversed by D-serine			inhibition of the secondary PSs [1]: inhibit the secondary PSs
C[C@]12N[C@H](Cc3ccccc31)c1ccccc12 [MK-801]	not reversed by D-serine			
c1ccc(C2(N3CCCCC3)CCCCC2)cc1 [PCP]	not reversed by D-serine			

From patent US5652239A, “Pyridazinedione derivatives useful in treatment of neurological disorders” (Imperial Chemical Company, priority 1991, dated 1997)
